Patent US20060069132A1, “Azolecarboxamide herbicides” (priority 2004, published 2006)

Legend:
barnyardgrass [1] = assay: Test A pre-/postemergence herbicide test; format: in vivo, Echinochloa crus-galli
In short: (§1)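 Plants are held in greenhouse about ten days after treatment, then compared with untreated controls and scored 0 (no effect) to 100 (complete control). Preemergence dosing is a directed soil spray on sown sandy loam; postemergence dosing is spray to runoff at 2–10 cm height.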

large crabgrass [2] = assay: Test A pre-/postemergence herbicide test; format: in vivo, Digitaria sanguinalis
In short: as §1

giant foxtail [3] = assay: Test A pre-/postemergence herbicide test; format: in vivo, Setaria faberi
In short: as §1

morningglory [4] = assay: Test A pre-/postemergence herbicide test; format: in vivo, Ipomoea spp.
In short: as §1

redroot pigweed = assay: Test A pre-/postemergence herbicide test; format: in vivo, Amaranthus retroflexus
In short: as §1

velvetleaf [5] = assay: Test A pre-/postemergence herbicide test; format: in vivo, Abutilon theophrasti
In short: as §1

barnyardgrass [6] = assay: Test B pre-/postemergence herbicide test; format: in vivo, Echinochloa crus-galli; settings: for Barnyardgrass plant response rating: postemergence
In short: (§2)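 Species tested were Echinochloa crus-galli, Ipomoea coccinea, Xanthium strumarium and Oryza sativa, treated both before emergence and at the 1- to 4-leaf stage; rice and barnyardgrass were also tested under flooding at 2 leaves. Greenhouse incubation lasted 13–15 days before visual 0–100 scoring.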

Surinam grass = assay: Test B pre-/postemergence herbicide test; format: in vivo, Urochloa decumbens; settings: for Surinam Grass plant response rating: postemergence
In short: (§3)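 Greenhouse pot assay with simultaneous preemergence (treated seed) and postemergence (2–18 cm seedlings) applications of surfactant-containing, non-phytotoxic solvent formulations. Response scored visually 13–15 days later on a 0–100 scale, 100 meaning complete control.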

cocklebur = assay: Test B pre-/postemergence herbicide test; format: in vivo, Xanthium strumarium; settings: for Cocklebur plant response rating: postemergence
In short: as §2

corn = assay: Test B pre-/postemergence herbicide test; format: in vivo, Zea mays; settings: for Corn plant response rating: postemergence
In short: as §3

large crabgrass [7] = assay: Test B pre-/postemergence herbicide test; format: in vivo, Digitaria sanguinalis; settings: for Crabgrass, Large plant response rating: postemergence
In short: as §3

giant foxtail [8] = assay: Test B pre-/postemergence herbicide test; format: in vivo, Setaria faberi; settings: for Foxtail, Giant plant response rating: postemergence
In short: as §3

lambsquarters = assay: Test B pre-/postemergence herbicide test; format: in vivo, Chenopodium album; settings: for Lambsquarters plant response rating: postemergence
In short: as §3

morningglory [9] = assay: Test B pre-/postemergence herbicide test; format: in vivo, Ipomoea coccinea; settings: for Morningglory plant response rating: postemergence
In short: as §2

pigweed = assay: Test B pre-/postemergence herbicide test; format: in vivo, Amaranthus retroflexus; settings: for Pigweed plant response rating: postemergence
In short: as §3

rice [10] = assay: Test B pre-/postemergence herbicide test; format: in vivo, Oryza sativa; settings: 0 = no effect, 100 = complete control, preemergence
In short: as §2

velvetleaf [11] = assay: Test B pre-/postemergence herbicide test; format: in vivo, Abutilon theophrasti; settings: for Velvetleaf plant response rating: postemergence
In short: as §3

blackgrass = assay: Test B postemergence herbicide test; format: in vivo, Alopecurus myosuroides; settings: postemergence
In short: (§4)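 Plants grow to 1- to 4-leaf stage (2–18 cm) for postemergence spraying, or to 2-leaf stage for the paddy test. Formulated compound is applied. Greenhouse holding lasts 13–15 days. Response is scored visually relative to controls, 0 no effect to 100 complete control; a dash means no result.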

wheat = assay: Test B postemergence herbicide test; format: in vivo, Triticum aestivum; set-up: key to Wheat plant response rating: 0 = no effect, 100 = complete control; settings: postemergence
In short: (§5)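 Formulated test chemicals went onto postemergence plants measuring 2 to 18 cm, at one to four leaves. For the paddy assay, species had reached two leaves. Scoring took place 13–15 days later by eye, relative to untreated plants, using 0 for no effect up to 100 for full control.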

wild oat = assay: Test B postemergence herbicide test; format: in vivo, Avena fatua; settings: postemergence
In short: as §5

rice [12] = assay: Test B flooded paddy test; format: in vivo, Oryza sativa; settings: 1000 g ai/ha, scale 0 to 100 (0 no effect, 100 complete control)
In short: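 Greenhouse test; postemergence application to plants at 1–4 leaves (2–18 cm); paddy species at 2 leaves; evaluated visually vs controls at 13–15 days; scale 0–100 (100 = complete control).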

[13] = test system: small flower umbrella sedge; assay: Test B flooded paddy test; format: in vivo, Cyperus difformis; settings: 1000 g ai/ha, scale 0 to 100 (0 no effect, 100 complete control)
In short: as §4

ducksalad = assay: Test B flooded paddy test; format: in vivo, Heteranthera limosa; settings: 1000 g ai/ha, scale 0 to 100 (0 no effect, 100 complete control)
In short: as §4

barnyardgrass [14] = assay: Test B flooded paddy test; format: in vivo, Echinochloa crus-galli; settings: 1000 g ai/ha, scale 0 to 100 (0 no effect, 100 complete control)
In short: as §4

[15] = Postemergence, 500 g ai/ha, 0 to 100 scale, 0 no effect, 100 complete control
[16] = Postemergence, 2000 g ai/ha, 0 to 100 scale, 0 no effect, 100 complete control
[17] = Preemergence, 2000 g ai/ha, visual rating, 0 to 100 scale (0 no effect, 100 complete control)
[18] = preemergence, 500 g ai/ha, visual injury, 0 to 100 scale (0 no effect, 100 complete control)
[19] = 125 g ai/ha, 0 = no effect, 100 = complete control, preemergence
[20] = 500 g ai/ha, visual rating, 0 = no effect, 100 = complete control, preemergence
[21] = 125 g ai/ha, visual rating, scale 0 (no effect) to 100 (complete control)
[22] = 500 g ai/ha, scale 0 to 100, 0 is no effect, 100 is complete control

In the case of CCN(C)C(=O)c1ccc(F)c(NC(=O)c2cc(C(C)(C)C)nn2CC)n1 [Compound 280], the “Barnyardgrass plant response rating” value (barnyardgrass [1]; [15]) is reported as 0, the “Plant response rating, Barnyardgrass” value (barnyardgrass [1]; [16]) is reported as 25 and the “Barnyardgrass plant response rating” value (barnyardgrass [1]; [17]) is reported as 45. The “Barnyardgrass plant response rating” value (barnyardgrass [1]; [18]) was 0, the “Crabgrass, Large plant response rating” value (large crabgrass [2]; [15]) was 5 and the “Plant response rating, Crabgrass, Large” value (large crabgrass [2]; [16]) was 0. For the same compound, the “Crabgrass, Large plant response rating” value (large crabgrass [2]; [17]) was 25, the “Crabgrass, Large plant response rating” value (large crabgrass [2]; [18]) was 0 and the “Foxtail, Giant plant response rating” value (giant foxtail [3]; [15]) was 0. For the same compound, the “Plant response rating, Foxtail, Giant” value (giant foxtail [3]; [16]) was 0, the “Foxtail, Giant plant response rating” value (giant foxtail [3]; [17]) was 45 and the “Foxtail, Giant plant response rating” value (giant foxtail [3]; [18]) was 5. For the same compound, the “Morningglory plant response rating” value (morningglory [4]; [15]) was 0, the “Plant response rating, Morningglory” value (morningglory [4]; [16]) was 10 and the “Morningglory plant response rating” value (morningglory [4]; [17]) was 15. The “Morningglory plant response rating” value (morningglory [4]; [18]) was 0, the “Pigweed plant response rating” value (redroot pigweed; [15]) was 55 and the “Plant response rating, Pigweed” value (redroot pigweed; [16]) was 70. For the same compound, the “Pigweed plant response rating” value (redroot pigweed; [17]) was 90, the “Pigweed plant response rating” value (redroot pigweed; [18]) was 15 and the “Velvetleaf plant response rating” value (velvetleaf [5]; [15]) was 20. The “Plant response rating, Velvetleaf” value (velvetleaf [5]; [16]) was 30, the “Velvetleaf plant response rating” value (velvetleaf [5]; [17]) was 30 and the “Velvetleaf plant response rating” value (velvetleaf [5]; [18]) was 0. For the same compound, the “Barnyardgrass plant response rating (0 to 100 scale)” value (barnyardgrass [6]; [19]) was 0, the “Plant response rating, Barnyardgrass” value (barnyardgrass [6]; [20]) was 10 and the “Barnyardgrass plant response rating” value (barnyardgrass [6]; [21]) was 0. For the same compound, the “Barnyardgrass plant response rating” value (barnyardgrass [6]; [22]) was 0, the “Surinam Grass plant response rating (0 to 100 scale)” value (Surinam grass; [19]) was 0 and the “Plant response rating, Surinam Grass” value (Surinam grass; [20]) was 10. The “Surinam Grass plant response rating” value (Surinam grass; [21]) was 0, the “Surinam Grass plant response rating” value (Surinam grass; [22]) was 10 and the “Cocklebur plant response rating (0 to 100 scale)” value (cocklebur; [19]) was 0. For the same compound, the “Plant response rating, Cocklebur” value (cocklebur; [20]) was 0, the “Cocklebur plant response rating” value (cocklebur; [21]) was 0 and the “Cocklebur plant response rating” value (cocklebur; [22]) was 30. The “Corn plant response rating (0 to 100 scale)” value (corn; [19]) was 0, the “Plant response rating, Corn” value (corn; [20]) was 0 and the “Corn plant response rating” value (corn; [21]) was 0. The “Corn plant response rating” value (corn; [22]) was 10, the “Crabgrass, Large plant response rating (0 to 100 scale)” value (large crabgrass [7]; [19]) was 0 and the “Plant response rating, Crabgrass, Large” value (large crabgrass [7]; [20]) was 10. The “Crabgrass, Large plant response rating” value (large crabgrass [7]; [21]) was 0, the “Crabgrass, Large plant response rating” value (large crabgrass [7]; [22]) was 0 and the “Foxtail, Giant plant response rating (0 to 100 scale)” value (giant foxtail [8]; [19]) was 0. For the same compound, the “Plant response rating, Foxtail, Giant” value (giant foxtail [8]; [20]) was 10, the “Foxtail, Giant plant response rating” value (giant foxtail [8]; [21]) was 0 and the “Foxtail, Giant plant response rating” value (giant foxtail [8]; [22]) was 0. The “Plant response rating, Lambsquarters” value (lambsquarters; [20]) was 80, the “Lambsquarters plant response rating” value (lambsquarters; [21]) was 10 and the “Lambsquarters plant response rating” value (lambsquarters; [22]) was 20. For the same compound, the “Morningglory plant response rating (0 to 100 scale)” value (morningglory [9]; [19]) was 0, the “Plant response rating, Morningglory” value (morningglory [9]; [20]) was 0 and the “Morningglory plant response rating” value (morningglory [9]; [21]) was 0. The “Morningglory plant response rating” value (morningglory [9]; [22]) was 10, the “Pigweed plant response rating (0 to 100 scale)” value (pigweed; [19]) was 70 and the “Plant response rating, Pigweed” value (pigweed; [20]) was 100. The “Pigweed plant response rating” value (pigweed; [21]) was 10, the “Pigweed plant response rating” value (pigweed; [22]) was 20 and the “Rice plant response rating (0 to 100 scale)” value (rice [10]; 125 g ai/ha) was 0. For the same compound, the “Plant response rating, Rice” value (rice [10]; 500 g ai/ha, visual rating) was 10, the “Velvetleaf plant response rating (0 to 100 scale)” value (velvetleaf [11]; [19]) was 10 and the “Plant response rating, Velvetleaf” value (velvetleaf [11]; [20]) was 20. The “Velvetleaf plant response rating” value (velvetleaf [11]; [21]) was 10, the “Velvetleaf plant response rating” value (velvetleaf [11]; [22]) was 20 and the “Blackgrass plant response rating” value (blackgrass; [21]) was 20. For the same compound, the “Blackgrass plant response rating” value (blackgrass; [22]) was 20, the “Wheat plant response rating” value (wheat; [21]) was 20 and the “Wheat plant response rating” value (wheat; [22]) was 30. For the same compound, the “Oat, Wild plant response rating” value (wild oat; [21]) was 10, the “Oat, Wild plant response rating” value (wild oat; [22]) was 20 and the “Rice plant response rating” value (rice [12]) was 0. For the same compound, the “Sedge, Umbrella plant response rating” value [13] was 30, the “Ducksalad plant response rating” value (ducksalad) was 20 and the “Barnyardgrass plant response rating” value (barnyardgrass [14]) was 0.
